Laboratory results taken from patent US12281122B1, “PI3K inhibitors” (Cogent Biosciences, Inc., priority 2023, dated 2025).

How the values were obtained:
[1] = test system: SKBR3 (PI3Kα-Wild Type) cell line; experiment: HTRF phospho-AKT(S473) cell assay in SKBR3 cells; format: cell-based, human; conditions: Homo sapiens, SK-BR-3, 2 hours compound incubation, PDGF-BB stimulated
Summary of the method: (§1)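 pAKT(S473) in lysates read by HTRF after a 2 h, 37 °C compound exposure (12-point 1:3 series, max 0.5% DMSO). SKBR3 (wild type, top 10 μM) received 70 ng/ml PDGF-BB during the final 15 min; T47D (H1047R, top 5 μM) was unstimulated. IC50 values derived from the dose-response.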

[2] = test system: T47D (PI3Kα-H1047R) cell line; experiment: HTRF phospho-AKT(S473) cell assay in T47D cells; format: cell-based, human; conditions: Homo sapiens, 2 hours compound incubation
Summary of the method: as §1

[3] = HTRF phospho-AKT(S473), SKBR3 (PI3Kα-Wild Type) cells
[4] = HTRF phospho-AKT(S473), T47D (PI3Kα-H1047R) cells
[5] = SKBR3 (PI3Kα-Wild Type) cells, HTRF phospho-AKT(S473)
[6] = T47D (PI3Kα-H1047R) cells, HTRF phospho-AKT(S473)

Structure (SMILES) | IC50 [1, 3] [µM] | IC50 [2, 4] [nM] | also measured
Cc1cc([C@@H](C)Nc2ccc(Cl)nc2C(=O)NS(C)(=O)=O)c2nc(N3C[C@@H]4[C@H](C3)[C@H]4n3ncc(F)c3C)n(C)c(=O)c2c1 [Compound 632, 6-chloro-3-(((R)-1-(2-((1R,5S,6S)-6-(4-fluoro-5-methyl-1H-pyrazol-1-yl)-3-azabicyclo[3.1.0]hexan-3-yl)-3,6-dimethyl-4-oxo-3,4-dihydroquinazolin-8-yl)ethyl)amino)-N-(methylsulfonyl) picolinamide] | 1 to 5 | 250 to 500 | 
Cc1cc([C@@H](C)Nc2ccc(Cl)nc2C(=O)NS(C)(=O)=O)c2nc(N3CCC(c4ncc(C(F)F)cn4)CC3)n(C)c(=O)c2c1 [Compound 504, (R)-6-chloro-3-((1-(2-(4-(5-(difluoromethyl)pyrimidin-2-yl)piperidin-1-yl)-3,6-dimethyl-4-oxo-3,4-dihydroquinazolin-8-yl)ethyl)amino)-N-(methylsulfonyl) picolinamide] | 1 to 5 | < 250 | 
Cc1cc([C@@H](C)Nc2ccc(Cl)nc2C(=O)NS(C)(=O)=O)c2nc(N3CC[C@H](c4ccc(C)nc4)C3)n(C)c(=O)c2c1 (relative stereo) [Compound 660, 6-chloro-3-(((R)-1-(3,6-dimethyl-2-((R*)-3-(6-methylpyridin-3-yl)pyrrolidin-1-yl)-4-oxo-3,4-dihydroquinazolin-8-yl)ethyl)amino)-N-(methylsulfonyl) picolinamide] | ≥ 5 | 250 to 500 | 
Cc1cc([C@@H](C)Nc2ccc(Cl)nc2C(=O)NS(C)(=O)=O)c2nc(N3Cc4cn(-c5ccc(C)nc5)nc4C3)n(C)c(=O)c2c1 [Compound 217, (R)-6-chloro-3-((1-(3,6-dimethyl-2-(2-(6-methylpyridin-3-yl)-2,6-dihydropyrrolo[3,4-c]pyrazol-5(4H)-yl)-4-oxo-3,4-dihydroquinazolin-8-yl)ethyl)amino)-N-(methylsulfonyl) picolinamide] |  |  | IC50 [1, 5]: 1 to 5 µM; IC50 [2, 6]: < 250 nM
Cc1cc([C@@H](C)Nc2ccc(Cl)nc2C(=O)NS(C)(=O)=O)c2nc(N3C[C@@H]4[C@H](C3)[C@H]4c3ccn(C4CC4)n3)n(C)c(=O)c2c1 [Compound 475, 6-chloro-3-(((R)-1-(2-((1R,5S,6R)-6-(1-cyclopropyl-1H-pyrazol-3-yl)-3-azabicyclo[3.1.0]hexan-3-yl)-3,6-dimethyl-4-oxo-3,4-dihydroquinazolin-8-yl)ethyl)amino)-N-(methylsulfonyl) picolinamide] | 1 to 5 | 250 to 500 | 
Cc1cc([C@@H](C)Nc2ccc(Cl)nc2C(=O)NS(=O)(=O)C2COC2)c2nc(N3Cc4cn(-c5ccccc5C)nc4C3)n(C)c(=O)c2c1 [Compound 628, (R)-6-chloro-3-((1-(3,6-dimethyl-4-oxo-2-(2-(o-tolyl)-2,6-dihydropyrrolo[3,4-c]pyrazol-5(4H)-yl)-3,4-dihydroquinazolin-8-yl)ethyl)amino)-N-(oxetan-3-ylsulfonyl)picolinamide] | ≥ 5 | 250 to 500 | 
Cc1cc([C@@H](C)Nc2ccc(Cl)nc2C(=O)NS(C)(=O)=O)c2nc(N3CCC[C@@H](c4nccc(C)n4)C3)n(C)c(=O)c2c1 (relative stereo) [Compound 647, 6-chloro-3-(((R)-1-(3,6-dimethyl-2-((R*)-3-(4-methylpyrimidin-2-yl)piperidin-1-yl)-4-oxo-3,4-dihydroquinazolin-8-yl)ethyl)amino)-N-(methylsulfonyl) picolinamide] | ≥ 5 | 250 to 500 | 
[2H]C([2H])([2H])n1cc(-c2ccc(-c3nc4c([C@@H](C)Nc5ccc(Cl)nc5C(=O)NS(C)(=O)=O)cc(C)cc4c(=O)n3C)cn2)cn1 [Compound 855, (R)-6-chloro-3-((1-(3,6-dimethyl-2-(6-(1-(methyl-d3)-1H-pyrazol-4-yl)pyridin-3-yl)-4-oxo-3,4-dihydroquinazolin-8-yl)ethyl)amino)-N-(methylsulfonyl) picolinamide] |  |  | IC50 ([1]; SKBR3 (PI3Kα-Wild Type) cell line, phospho-AKT(S473) HTRF): 1 to 5 µM; IC50 ([2]; T47D (PI3Kα-H1047R) cell line, phospho-AKT(S473) HTRF): < 250 nM
Cc1cc([C@@H](C)Nc2ccc(Cl)nc2C(=O)NS(C)(=O)=O)c2nc(N3Cc4cn(-c5ccccc5)nc4C3)n(C)c(=O)c2c1 [Compound 147, (R)-6-chloro-3-((1-(3,6-dimethyl-4-oxo-2-(2-phenyl-2,6-dihydropyrrolo[3,4-c]pyrazol-5(4H)-yl)-3,4-dihydroquinazolin-8-yl)ethyl)amino)-N-(methylsulfonyl) picolinamide] |  |  | IC50 [1, 5]: ≥ 5 µM; IC50 [2, 6]: 250 to 500 nM
Cc1cnc(C2[C@H]3CN(c4nc5c([C@@H](C)Nc6ccc(Cl)nc6C(=O)NS(C)(=O)=O)cc(C)cc5c(=O)n4C)C[C@@H]23)nc1 (stereo partly drawn) [Compound 515, 6-chloro-3-(((1R)-1-(3,6-dimethyl-2-((1R,5S)-6-(5-methylpyrimidin-2-yl)-3-azabicyclo[3.1.0]hexan-3-yl)-4-oxo-3,4-dihydroquinazolin-8-yl)ethyl)amino)-N-(methylsulfonyl) picolinamide] | 1 to 5 | < 250 | 
Cc1cc([C@@H](C)Nc2ccc(Cl)nc2C(=O)NS(C)(=O)=O)c2nc(N3C[C@@H]4[C@H](C3)[C@H]4c3n[nH]c(C)c3F)n(C)c(=O)c2c1 [Compound 594, 6-chloro-3-(((R)-1-(2-((1R,5S,6R)-6-(4-fluoro-5-methyl-1H-pyrazol-3-yl)-3-azabicyclo[3.1.0]hexan-3-yl)-3,6-dimethyl-4-oxo-3,4-dihydroquinazolin-8-yl)ethyl)amino)-N-(methylsulfonyl) picolinamide] | 1 to 5 | < 250 | 
CC(=O)N1CCN(c2ncc(-c3nc4c([C@@H](C)Nc5ccc(Cl)nc5C(=O)NS(C)(=O)=O)cc(C)cc4c(=O)n3C)cc2F)CC1 [Compound 259, (R)-3-((1-(2-(6-(4-acetylpiperazin-1-yl)-5-fluoropyridin-3-yl)-3,6-dimethyl-4-oxo-3,4-dihydroquinazolin-8-yl)ethyl)amino)-6-chloro-N-(methylsulfonyl) picolinamide] |  |  | IC50 [1, 5]: 1 to 5 µM; IC50 [2, 6]: < 250 nM
Cc1cnc([C@H]2[C@@H]3CN(c4nc5c([C@@H](C)Nc6ccc(Cl)nc6C(=O)NS(C)(=O)=O)cc(C)cc5c(=O)n4C)C[C@@H]32)nc1 [Compound 502, 6-chloro-3-(((R)-1-(3,6-dimethyl-2-((1R,5S,6R)-6-(5-methylpyrimidin-2-yl)-3-azabicyclo[3.1.0]hexan-3-yl)-4-oxo-3,4-dihydroquinazolin-8-yl)ethyl)amino)-N-(methylsulfonyl) picolinamide] | 1 to 5 | 250 to 500 | 
CCn1c(N2Cc3cn(CC(F)(F)F)nc3C2)nc2c([C@@H](C)Nc3ccc(Cl)nc3C(=O)NS(C)(=O)=O)cc(C)cc2c1=O [Compound 732, (R)-6-chloro-3-((1-(3-ethyl-6-methyl-4-oxo-2-(2-(2,2,2-trifluoroethyl)-2,6-dihydropyrrolo[3,4-c]pyrazol-5(4H)-yl)-3,4-dihydroquinazolin-8-yl)ethyl)amino)-N-(methylsulfonyl) picolinamide] | 1 to 5 | < 250 | 
Cc1cc([C@@H](C)Nc2ccc(Cl)nc2C(=O)NS(C)(=O)=O)c2nc(N3C[C@@H]4[C@H](C3)[C@H]4c3cnc(C)o3)n(C)c(=O)c2c1 [Compound 518, 6-chloro-3-(((R)-1-(3,6-dimethyl-2-((1R,5S,6R)-6-(2-methyloxazol-5-yl)-3-azabicyclo[3.1.0]hexan-3-yl)-4-oxo-3,4-dihydroquinazolin-8-yl)ethyl)amino)-N-(methylsulfonyl) picolinamide] | 1 to 5 | < 250 | 
Cc1cc([C@@H](C)Nc2ccc(Cl)nc2C(=O)NS(C)(=O)=O)c2nc(N3C[C@@H]4[C@H](C3)[C@H]4n3cc(Cl)cn3)n(C)c(=O)c2c1 [Compound 583, 6-chloro-3-(((R)-1-(2-((1R,5S,6S)-6-(4-chloro-1H-pyrazol-1-yl)-3-azabicyclo[3.1.0]hexan-3-yl)-3,6-dimethyl-4-oxo-3,4-dihydroquinazolin-8-yl)ethyl)amino)-N-(methylsulfonyl) picolinamide] | ≥ 5 | 250 to 500 | 
CCn1c(N2CCC(c3nn(C)cc3F)CC2)nc2c([C@@H](C)Nc3ccc(Cl)nc3C(=O)NS(C)(=O)=O)cc(C)cc2c1=O [Compound 433, (R)-6-chloro-3-((1-(3-ethyl-2-(4-(4-fluoro-1-methyl-1H-pyrazol-3-yl)piperidin-1-yl)-6-methyl-4-oxo-3,4-dihydroquinazolin-8-yl)ethyl)amino)-N-(methylsulfonyl) picolinamide] |  |  | IC50 [1, 5]: ≥ 5 µM; IC50 [2, 6]: < 250 nM
Cc1cc([C@@H](C)Nc2ccc(Cl)nc2C(=O)NS(=O)(=O)c2ccncc2)c2nc(N3Cc4ccc(F)cc4C3)n(C)c(=O)c2c1 [Compound 170, (R)-6-chloro-3-((1-(2-(5-fluoroisoindolin-2-yl)-3,6-dimethyl-4-oxo-3,4-dihydroquinazolin-8-yl)ethyl)amino)-N-(pyridin-4-ylsulfonyl)picolinamide] |  |  | IC50 [1, 5]: ≥ 5 µM; IC50 [2, 6]: < 250 nM
Cc1cc([C@@H](C)Nc2ccc(Cl)nc2C(=O)NS(C)(=O)=O)c2nc([C@H]3CCCN(c4nccc(C)n4)C3)n(C)c(=O)c2c1 (mixture of isomers) [Compound 756, 6-chloro-3-(((R)-1-(3,6-dimethyl-2-((RS)-1-(4-methylpyrimidin-2-yl)piperidin-3-yl)-4-oxo-3,4-dihydroquinazolin-8-yl)ethyl)amino)-N-(methylsulfonyl) picolinamide] | ≥ 5 | 500 to 1000 | 
